Earlier results, collected in patent US8716482B2, “Substituted aminopiperidines as dipeptidyl peptidase-IV inhibitors for the treatment of diabetes” (Merck Sharp & Dohme Corp., priority 2009, dated 2014).

Assays:
[1] = molecular target: DPP-4 (Homo sapiens (Human), UniProt P27487)
[2] = tested on: hematopoiesis; details: mouse, cyclophosphamide-induced neutropenia

Sequence of DPP-4 (P27487 39-766, species assumed): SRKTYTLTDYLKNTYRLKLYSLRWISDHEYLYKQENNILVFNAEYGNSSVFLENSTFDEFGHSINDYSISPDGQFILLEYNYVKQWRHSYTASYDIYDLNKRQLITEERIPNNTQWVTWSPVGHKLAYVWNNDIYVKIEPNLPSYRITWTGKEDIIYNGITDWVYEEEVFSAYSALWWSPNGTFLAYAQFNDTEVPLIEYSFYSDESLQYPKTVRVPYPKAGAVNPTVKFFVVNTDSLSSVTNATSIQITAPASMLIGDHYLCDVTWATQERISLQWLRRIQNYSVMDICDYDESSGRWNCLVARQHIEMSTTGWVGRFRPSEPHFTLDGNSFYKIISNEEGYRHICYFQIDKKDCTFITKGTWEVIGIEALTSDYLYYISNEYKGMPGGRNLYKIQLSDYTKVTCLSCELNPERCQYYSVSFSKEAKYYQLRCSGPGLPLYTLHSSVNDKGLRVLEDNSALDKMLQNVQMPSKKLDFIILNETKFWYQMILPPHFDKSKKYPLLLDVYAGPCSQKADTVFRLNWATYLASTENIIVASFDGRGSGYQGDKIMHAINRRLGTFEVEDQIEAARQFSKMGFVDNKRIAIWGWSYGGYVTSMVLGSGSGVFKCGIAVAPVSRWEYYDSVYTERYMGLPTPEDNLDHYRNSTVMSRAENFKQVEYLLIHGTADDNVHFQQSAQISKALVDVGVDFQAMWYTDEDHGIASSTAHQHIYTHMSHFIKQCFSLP

Row | Compound | degradation of GRF in plasma to GRF[3-44] [1] | hematopoiesis [2]
1 | diprotin A | prevented | 
2 | CC(C)[C@H](N)C(=O)N1CCC[C@H]1B(O)O [Val-Boro-Pro] |  | stimulated hematopoiesis
